# Data as given in patent US20040009904A1, “APL immunoreactive peptides, conjugates thereof and methods of treatment for aPL antibody-mediated pathologies” (priority 1995, published 2004).
# Numbered stars: 1 amine (or outer) side, 2 acyl side, 3 side chain; on linkers, the order of the positions; unused ones are H or OH. Bridge positions count the residues as written; N and C are the ends. Square brackets hold non-standard residues; d marks the D form. Peptide text beside a SMILES is read from it. Abu(4-yl) = O=C([C@H](CC[*:3])N[*:1])[*:2]
# Assays:
# [1] = biological target: ACA-6501; test: Competitive binding peptide ACA ELISA, cardiolipin/β2-GPI-coated plates; parameters: species or system human; conditions: for IC50 Values, ACA-6501: cyclic thioether analogs; for with ACA 6501 150 ug/mL: Optimization of Peptide 3G3, inf = no 50% inhibition; for Percent Inhibition of AffACA by Peptide Monomers, 6501: affinity purified antibody
# Summary of the method: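 Monomeric peptides at several amounts were preincubated ~1 h at RT with ACA-6501 serum (final 1:400), then added to cardiolipin-coated, fish-gelatin-blocked plates with β2-GPI for 1 h at RT. Bound IgG was detected with alkaline phosphatase anti-human IgG and phenolphthalein monophosphate, read at 550 nm. IC50 was the peptide amount at half-maximal absorbance.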
# [2] = biological target: ACA-6701; test: as above; parameters: species or system human; conditions: for IC50 Values, ACA-6701: cyclic thioether analogs; for Percent Inhibition of AffACA by Peptide Monomers, 6701: affinity purified antibody
# Experimental: (§1) A variation of this assay uses microtitration plates coated with human β2-glycoprotein I/cardiolipin (β2-GPI/CL) instead of tetravalent peptide and tests the ability of monomeric peptides to block the binding of aPL antibody to the epitope(s) on β2-GPI/CL. In this assay, IgG-depleted human serum at an optimized concentration is used as a source of β2-GPI. The monomeric peptides at several concentrations are incubated with an optimized concentration of aPL antibody in a manner analogous to the assay which employs tetravalent peptide as a plate substrate. Following the incubation of aPL/peptide in (β2-GPI/CL) plates, antibody binding and the peptide concentration required for 50% inhibition is determined at half-maximal absorbance as in the tetravalent assay.
# (§2) Peptide sequences for all five peptides immediately follow the table. All were tested using the competitive binding peptide ACA ELISA using CL/β2-GPI plates as described herein.
# (§3) (B) Immulon I® 96-well, flat-bottom, polystyrene microtitration plates (Dynatech Laboratories, Inc., Chantilly, Va.) were coated with 30 μL/well of cardiolipin (CL, 50 μg; Sigma Chemical Co., St. Louis, Mo.) in ethanol. Two control wells received 30 μL ethanol only. After overnight evaporation at 4° C., each well was blocked with 200 μL of 5% (w/v) fish gelatin in PBS for 2 hours at RT.
# (§4) The CL/β2-GPI microtitration plate was washed 5 times with TBS and 100 μL aliquots in duplicate from Eppendorf tubes #1, 2, 3, and 4 containing the antibody-peptide (or no peptide mixtures) were added to the wells. A volume of 100 μL from tube #4 was added to the duplicate control wells containing no cardiolipin. The microtitration plate was incubated for 1 hour at RT with agitation at 40 rpm in an orbital shaker (American Scientific, Rotator V), washed 5 times with TBS and then 100 μL of 1:1000 goat anti-human IgG alkaline phosphatase conjugate (Zymed, Cat No. 62-8422) in 0.5% (w/v) BSA-TBS was added. Following incubation for 1 hour at RT, the microtitration plate was again washed 5 times with TBS and the colorimetric enzyme detection developed by adding 100 μL of PMPP solution (7.8 g phenolphthalein monophosphate plus 69.5 g of 2-amino-2-methyl-1-propanol in 100 mL water stock solution diluted 1:26 with water). After 21 minutes, the reaction was stopped by adding 50 μL of 0.2 M Na2HPO4 (Mallinckrodt) to each well. Absorbance at 550 nm was read in a microplate reader (Bio-Tek Instruments, Model EL 311). The amount of peptide that inhibited ACA-6501 binding by 50%, the IC50, was calculated from the graph at the intersection of half-maximal absorbance with amount of peptide added.
# [3] = tested on: ACA; test: Structure Activity Relationship of the Crossreactive ACA Epitope (relative activity); type: binding, human; conditions: LJP 688 = 100
# From the text: Peptide 6641/3G3 (LJP 688) was subjected to a number of analyses. The analyses included truncation at both the N-terminus and the C-terminus, disulfide substitution, substitution of alanine and glycine for amino acids in positions 2 through 8, substitution of branched aliphatic amino acids in positions 2, 4, 5 and 8, substitution of amino acids affecting conformation of the peptide, including substitution of α-methyl amino acids, substitution of basic amino acids in position 7, substitution of D-amino acids in positions 2 through 9, and the substitution of N-α-methyl amino acids in positions 1 through 9.
# [4] = tested on: ACA-6626; test: Competitive binding peptide ACA ELISA, cardiolipin/β2-GPI-coated plates; parameters: species or system human; conditions: affinity purified antibody
# Experimental: as §1, §2, §3, §4
# [5] = tested on: ACA-6638; test: as above; parameters: species or system human; conditions: affinity purified antibody
# Experimental: as §1, §2, §3, §4
# [6] = tested on: ACA-6641; test: as above; parameters: species or system human; conditions: affinity purified antibody
# Experimental: as §1, §2, §3, §4
# [7] = tested on: ACA-6644; test: as above; parameters: species or system human; conditions: affinity purified antibody
# Experimental: as §1, §2, §3, §4
# [8] = tested on: ACA-6903; test: as above; parameters: species or system human; conditions: affinity purified antibody
# Experimental: as §1, §2, §3, §4
# [9] = tested on: ACA-7004; test: as above; parameters: species or system human; conditions: affinity purified antibody
# Experimental: as §1, §2, §3, §4
# [10] = tested on: ACA-7005; test: as above; parameters: species or system human; conditions: affinity purified antibody
# Experimental: as §1, §2, §3, §4
# [11] = tested on: ACA antibodies; test: Competitive binding peptide ACA ELISA, cardiolipin/β2-GPI-coated plates, panel of ACA antibodies (average); parameters: species or system human; conditions: average over nine antibodies
# Experimental: as §1, §2
# As noted in Section I above, one synthetic peptide, 6641/3G3 was tested against several high titer ACA antisera. This peptide appeared to be crossreactive with the vast majority of ACA antisera tested as illustrated in FIG. 14.
# as §3, §4
# [12] = tested on: ACA-6501; test: Phage-ELISA; type: binding, human; conditions: phage clones coated on wells, affACA-6501 2.5 μg/mL
# Experimental: This method of selecting phage requires very tight binding of the insert to the screening antibody. Phage are directly coated onto wells of a microtitration plate and incubated with the screening antibody. Following washes to remove unbound antibody, an anti-human IgG alkaline phosphatase conjugate is added to bind any aPL antibodies bound to the phage. APL antibodies are then detected by adding a calorimetric substrate to the well which will react with alkaline phosphatase according to methods well known in the art.
# Three mL cultures were prepared from 35 clones previously isolated with affinity purified ACA-6501 in several phage library screens as well as one fUSE 2 phage clone lacking a peptide insert which was used as a control. After centrifugation for 3 minutes at 17,000×g, 100 μL from each phage supernatant (adjusted to −2×10^11 particles/mL, based on absorbance) was added to microtitration plate wells (Falcon, Becton-Dickinson Labware, Lincoln Park, N.Y.) and allowed to incubate overnight at 4° C. Following four washes with TBS 7.4, the plate was blocked with 125 μL of 0.5% BSA/TBS for 1 hour at RT. After another four TBS washes, 100 μL of affACA-6501 previously diluted to 2.5 μg/mL in TBS/BSA was added to each well and allowed to incubate 1 hour at 37° C. Following an additional four washes, 100 μL anti-human IgG diluted 1:1000 in TBS/0.5% Tween was added to each well. After 1 hour at RT, enzyme substrate was added and the incubation allowed to proceed for 2 hours. Following the addition of 50 μL 0.2 M Na2HPO4 to stop the reaction, absorbance was measured at 550 nm in the automated plate absorbance reader. […] The sequences for these clones are showvn in Table 2.
compound,measurement,setting,value
"CC(C)C[C@@H]1NC(=O)[C@H](CCCCN)NC(=O)CNC(=O)[C@H](CC(C)C)NC(=O)[C@H](C(C)C)NC(=O)CNC(=O)[C@H](CC(C)C)NC(=O)[C@@H](N)CSSC[C@@H](C(=O)O)NC1=O [LJP 690, CLGVLGKLC] (H-CLGVLGKLC-OH; disulfide 1-9)","IC50 Values, ACA-6501",[1],10.0 μg/0.1 mL
same,"IC50 Values, ACA-6701",[2],4.0 μg/0.1 mL
same,Relative Activity,[3],3.5
CC(C)C[C@@H]1NC(=O)[C@H](CCCCN)NC(=O)CNC(=O)[C@H](CC(C)C)NC(=O)[C@H](C(C)C)NC(=O)CNC(=O)[C@H](CC(C)C)NC(=O)[C@@H](N)CCSC[C@@H](C(=O)O)NC1=O [LJP 699] (H-[Abu(4-yl)]LGVLGKLC-OH; thioether 1-9),with ACA 6501 150 ug/mL,[1],46 µg/mL
same,"IC50 Values, ACA-6501",[1],4.6 μg/0.1 mL
same,"IC50 Values, ACA-6701",[2],3.0 μg/0.1 mL
same,Relative Activity,[3],1.6
"CC(C)C[C@@H]1NC(=O)[C@H](CCCCN)NC(=O)[C@H](C)NC(=O)[C@H](CC(C)C)NC(=O)[C@H](C(C)C)NC(=O)CNC(=O)[C@H](CC(C)C)NC(=O)[C@@H](N)CSSC[C@@H](C(=O)O)NC1=O [peptide 925, CLGVLAKLC] (H-CLGVLAKLC-OH; disulfide 1-9)",with ACA 6501 150 ug/mL,[1],40 µg/mL
same,Relative Activity,[3],1.8
AGP DGNIADPRC PG (DGNIADPRCPG) [6626/4C7],"Percent Inhibition of AffACA by Peptide Monomers, 6501",[1]; peptide 1 mg/mL,39%
same,"Percent Inhibition of AffACA by Peptide Monomers, 6626",[4]; peptide 1 mg/mL,88%
same,"Percent Inhibition of AffACA by Peptide Monomers, 6638",[5]; peptide 1 mg/mL,96%
same,"Percent Inhibition of AffACA by Peptide Monomers, 6641",[6]; peptide 1 mg/mL,45%
same,"Percent Inhibition of AffACA by Peptide Monomers, 6644",[7]; peptide 1 mg/mL,45%
same,"Percent Inhibition of AffACA by Peptide Monomers, 6701",[2]; peptide 1 mg/mL,69%
same,"Percent Inhibition of AffACA by Peptide Monomers, 6903",[8]; peptide 1 mg/mL,77%
same,"Percent Inhibition of AffACA by Peptide Monomers, 7004",[9]; peptide 1 mg/mL,99%
same,"Percent Inhibition of AffACA by Peptide Monomers, 7005",[10]; peptide 1 mg/mL,54%
same,"Percent Inhibition of AffACA by Peptide Monomers, Ave.",[11]; peptide 1 mg/mL,68%
AGP LSDPGYVRNIFH PG (LSDPGYVRNIFHPG) [6701/3B1],"Percent Inhibition of AffACA by Peptide Monomers, 6501",[1]; peptide 1 mg/mL,41%
same,"Percent Inhibition of AffACA by Peptide Monomers, 6626",[4]; peptide 1 mg/mL,43%
same,"Percent Inhibition of AffACA by Peptide Monomers, 6638",[5]; peptide 1 mg/mL,65%
same,"Percent Inhibition of AffACA by Peptide Monomers, 6641",[6]; peptide 1 mg/mL,43%
same,"Percent Inhibition of AffACA by Peptide Monomers, 6644",[7]; peptide 1 mg/mL,37%
same,"Percent Inhibition of AffACA by Peptide Monomers, 6701",[2]; peptide 1 mg/mL,96%
same,"Percent Inhibition of AffACA by Peptide Monomers, 6903",[8]; peptide 1 mg/mL,51%
same,"Percent Inhibition of AffACA by Peptide Monomers, 7004",[9]; peptide 1 mg/mL,72%
same,"Percent Inhibition of AffACA by Peptide Monomers, 7005",[10]; peptide 1 mg/mL,23%
same,"Percent Inhibition of AffACA by Peptide Monomers, Ave.",[11]; peptide 1 mg/mL,52%
"CILLAHDRC [3E7, ACA-6501 phage clone insert]",signal in the phage-ELISA,[12],significant signals
CLGVAGKLC [C L G V A G K L C],with ACA 6501 150 ug/mL,[1],inf
same,Relative Activity,[3],∞
CLGVLGALC [C L G V L G A L C],with ACA 6501 150 ug/mL,[1],inf
same,Relative Activity,[3],∞
"CLVLALDRC [3B6, ACA-6501 phage clone insert]",signal in the phage-ELISA,[12],significant signals
"CTILTLDRC [2H2, ACA-6501 phage clone insert]",signal in the phage-ELISA,[12],significant signals
GILALDYV GG (GILALDYVGG) [6644/CBf],"Percent Inhibition of AffACA by Peptide Monomers, 6501",[1]; peptide 200 μg/mL,37%
same,"Percent Inhibition of AffACA by Peptide Monomers, 6626",[4]; peptide 200 μg/mL,37%
same,"Percent Inhibition of AffACA by Peptide Monomers, 6638",[5]; peptide 200 μg/mL,60%
same,"Percent Inhibition of AffACA by Peptide Monomers, 6641",[6]; peptide 200 μg/mL,28%
same,"Percent Inhibition of AffACA by Peptide Monomers, 6644",[7]; peptide 200 μg/mL,18%
same,"Percent Inhibition of AffACA by Peptide Monomers, 6701",[2]; peptide 200 μg/mL,22%
same,"Percent Inhibition of AffACA by Peptide Monomers, 6903",[8]; peptide 200 μg/mL,43%
same,"Percent Inhibition of AffACA by Peptide Monomers, 7004",[9]; peptide 200 μg/mL,54%
same,"Percent Inhibition of AffACA by Peptide Monomers, 7005",[10]; peptide 200 μg/mL,57%
same,"Percent Inhibition of AffACA by Peptide Monomers, Ave.",[11]; peptide 200 μg/mL,39%
